Where “and” joins values, the source holds several entries; their conditions need not be identical. Equal entries are not always repeated. Where two headings read alike, the source gives them in different places. Marks after values point to notes of the source that are not given here. Numbered stars: 1 amine (or outer) side, 2 acyl side, 3 side chain; on linkers, the order of the positions; unused ones are H or OH. Bridge positions count the residues as written; N and C are the ends. Square brackets hold non-standard residues; d marks the D form. Peptide text beside a SMILES is read from it. I, II: the chains in the order shown. ξ: configuration not given here. Phe(4-tBu) = CC(C)(C)c1ccc(C[C@H](N)C(=O)O)cc1; Diglycolyl = O=C(COCC(=O)[*:2])[*:1]; NMeR = CN[C@@H](CCCNC(=N)N)C(=O)O; β3hE = N[C@@H](CCC(=O)O)CC(=O)O; Thr(3ξ) = CC(O)[C@H](N)C(=O)O; X1 = O=C(c1ccccc1C[*:2])[*:1]; Pen = CC(C)(S)[C@H](N)C(=O)O
Tests used:
[1] = target: T1, α4β7 integrin on memory CD4+ T cells (Homo sapiens, UniProt P13612+P26010); experiment: Study 1 blood α4β7 receptor occupancy and receptor expression; type: in vivo; conditions: for Tmax for RO / Average RO (%) / Average RE (%) / REmax (%) / ROmax (%) / Tmax for RE: Mean ± SD
T1 construct: the amount of α4β7 expression on the cell surface of circulating lymphocytes; endogenous in cells; host or cells: heparinized whole blood of healthy volunteers
T1 sequence (P13612 34-1032): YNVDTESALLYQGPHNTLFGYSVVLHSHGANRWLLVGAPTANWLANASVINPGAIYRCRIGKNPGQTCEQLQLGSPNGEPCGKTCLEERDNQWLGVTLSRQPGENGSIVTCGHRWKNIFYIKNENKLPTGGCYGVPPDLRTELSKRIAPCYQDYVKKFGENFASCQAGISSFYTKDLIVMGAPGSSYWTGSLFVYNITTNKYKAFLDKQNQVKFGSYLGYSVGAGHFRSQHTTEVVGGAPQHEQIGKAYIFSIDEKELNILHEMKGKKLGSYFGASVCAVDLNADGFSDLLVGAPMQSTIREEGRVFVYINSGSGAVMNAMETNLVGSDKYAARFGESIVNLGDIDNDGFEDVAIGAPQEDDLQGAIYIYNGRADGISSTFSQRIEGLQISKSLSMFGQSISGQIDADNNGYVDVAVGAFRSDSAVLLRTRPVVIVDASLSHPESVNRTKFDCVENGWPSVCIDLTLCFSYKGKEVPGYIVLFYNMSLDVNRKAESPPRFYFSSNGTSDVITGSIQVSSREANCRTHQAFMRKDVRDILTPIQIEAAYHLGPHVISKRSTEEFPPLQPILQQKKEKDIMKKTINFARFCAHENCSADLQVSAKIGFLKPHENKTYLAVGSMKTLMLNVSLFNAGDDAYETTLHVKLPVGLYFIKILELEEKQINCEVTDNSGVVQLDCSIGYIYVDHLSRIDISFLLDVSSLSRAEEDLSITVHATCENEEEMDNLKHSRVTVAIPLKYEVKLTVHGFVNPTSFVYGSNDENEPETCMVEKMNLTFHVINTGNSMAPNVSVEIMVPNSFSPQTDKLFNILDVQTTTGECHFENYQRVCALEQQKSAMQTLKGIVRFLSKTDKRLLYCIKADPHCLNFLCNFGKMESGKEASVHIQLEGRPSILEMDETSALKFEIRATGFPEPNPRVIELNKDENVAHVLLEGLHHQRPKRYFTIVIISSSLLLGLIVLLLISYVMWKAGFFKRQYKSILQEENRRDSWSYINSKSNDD
T1 sequence (P26010 20-798): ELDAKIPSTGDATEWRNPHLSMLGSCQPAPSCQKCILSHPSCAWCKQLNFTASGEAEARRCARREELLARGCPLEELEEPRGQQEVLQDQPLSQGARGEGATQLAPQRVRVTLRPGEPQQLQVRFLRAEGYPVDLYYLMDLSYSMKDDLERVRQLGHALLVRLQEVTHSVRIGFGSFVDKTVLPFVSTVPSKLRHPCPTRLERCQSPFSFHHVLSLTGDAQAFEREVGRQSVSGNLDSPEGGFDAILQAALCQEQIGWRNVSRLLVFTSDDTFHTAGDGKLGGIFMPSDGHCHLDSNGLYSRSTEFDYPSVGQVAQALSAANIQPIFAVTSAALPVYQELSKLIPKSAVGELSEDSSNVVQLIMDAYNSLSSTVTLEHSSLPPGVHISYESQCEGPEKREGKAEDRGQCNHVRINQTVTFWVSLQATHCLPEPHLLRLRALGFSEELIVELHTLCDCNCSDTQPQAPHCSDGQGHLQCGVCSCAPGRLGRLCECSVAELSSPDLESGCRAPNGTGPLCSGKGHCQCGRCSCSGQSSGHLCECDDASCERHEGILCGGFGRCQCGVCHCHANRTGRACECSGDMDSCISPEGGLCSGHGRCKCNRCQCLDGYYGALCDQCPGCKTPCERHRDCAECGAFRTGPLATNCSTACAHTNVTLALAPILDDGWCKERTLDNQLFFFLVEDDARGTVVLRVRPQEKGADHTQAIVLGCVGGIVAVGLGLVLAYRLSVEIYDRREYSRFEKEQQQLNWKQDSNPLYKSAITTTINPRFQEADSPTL
Procedure: After staining is completed, the samples are treated with a red blood cell lysis and fixation buffer, washed and acquired on a flow cytometer. To quantify receptor occupancy on α4β7 expressing memory CD4 T cells, the […] fluorescence intensity (MFI) of Alexa647-labelled peptide within the vedolizumab+ memory CD4+ T cells was used. Receptor occupancy was calculated according to the following formula: [Percent RO]=(1−([Unblocked]−[Blocked])/([Baseline Unblocked]−[Baseline Blocked]))×100.
Expression of α4β7 is defined by MFI of vedolizumab within the memory CD4+ T cells from the unblocked samples. Receptor expression (RE) was calculated as percent change of MFI from baseline for the vedolizumab stain.

[2] = male, human, in vivo; for Ctrough: po
Procedure: Dose escalation proceeded from 100 mg, 300 mg, 1000 mg, 1400 mg. Subjects in the 300 mg dose cohort received treatment in the fasted state on one occasion and following a high fat meal on a second occasion in a crossover fashion. The high fat meal consisted of two eggs fried in butter, two strips of bacon, two slices of toast with butter, four ounces of hash brown potatoes and 240 ml of whole milk. During Part 1, subjects refrained from food and drink except water for 10 hours before and for four hours after dosing with the exception of subjects in the 300 mg dose cohort during the fed treatment.
Part 2 was a randomized, placebo-controlled, double-blind multiple ascending dose study in 50 male subjects divided equally into 5 cohorts. […] Doses evaluated in Part 2 included 100 mg, 300 mg and 1000 mg. During Part 2, two cohorts of subjects (100 mg and 300 mg) received food approximately 30 minutes prior to each dose and another two cohorts of subjects (300 mg and 100 mg) refrained from food for 10 hours before and for 1 hour after dosing.
Study 1: The single and multiple ascending dose phase of the study consisted of sequential dose escalations in 10 subject per dose cohort. […] Dose solutions were formulated in 50 mM phosphate buffer pH 7.4 and were prepared weekly by a qualified pharmacist.
Blood samples for pharmacokinetics were collected predose and for 48 hours postdose following single doses. In the multiple ascending dose phase, blood samples were obtained on Days 1-3 and 14-16; on Days 8 samples were obtained predose, 4, and 12 hours. On Day 10 of the MAD, subjects were required to collect all urine for the 0-6, 6-12, 12-18, and 18-24 hour intervals postdose and on Day 11 subjects were required to collect fecal samples.
The drug and internal standard were extracted from the matrix by a protein precipitation procedure. The limit of quantitation was 0.2 ng/mL, 20 ng/mL, and 100 ng/mL in plasma, urine, and feces, respectively. […] Coefficient of determinations for the calibration curves were at least 0.99 for all matrices. The interassay accuracy (% bias) ranged from −2.2% to 1.0% for plasma, −3.8% to 9.0% for urine and −5.0 to 5.2% for feces. Interassay precision (% CV) ranged from 3.7% to 7.7% for plasma, 2.8% to 7.0% for urine, and 1.2% to 5.2% for feces.
Pharmacokinetic parameters were estimated by noncompartmental methods using Phoenix WinNonlin (Certara, Princeton N.J.). Peak plasma concentration (Cmax) and time to peak plasma concentration (Tmax) were observed values. The elimination rate was estimated from the slope of the least-squares regression on the terminal log-linear phase. Area under the plasma concentration-time curve from time zero to the last quantifiable concentration (AUCt) was estimated by a linear trapezoidal method and was extrapolated to infinity (AUC∞) by dividing the last quantifiable concentration b the elimination rate.

[3] = 1000 mg Fasted once daily, Day 1
[4] = 1000 mg Fasted once daily, Day 14
[5] = single dose 1400 mg, listed as COMPOUND A

In the case of CC(C)C[C@@H]1NC(=O)[C@H](C(C)O)NC(=O)[C@H](CC(=O)O)NC(=O)[C@H](CO)NC(=O)[C@H](CCCNC(=N)N)N(C)C(=O)c2ccccc2CSC(C)(C)[C@@H](C(=O)N[C@@H](Cc2ccc(C(C)(C)C)cc2)C(=O)N[C@@H](CCC(=O)O)CC(=O)N[C@H](CCCCNC(=O)COCC(=O)NCCCC[C@@H](NC(=O)C[C@H](CCC(=O)O)NC(=O)[C@H](Cc2ccc(C(C)(C)C)cc2)NC(=O)[C@H]2NC(=O)[C@H](CC(C)C)NC(=O)[C@H](C(C)O)NC(=O)[C@H](CC(=O)O)NC(=O)[C@H](CO)NC(=O)[C@H](CCCNC(=N)N)N(C)C(=O)c3ccccc3CSC2(C)C)C(=O)O)C(=O)O)NC1=O (stereo partly drawn) [Compound A, ((2-Benzyl)-(N-Me-R)-Ser-Asp-Thr-Leu-Pen-(Phe(4-tBlu))-(β-homo-Glu)-(D-Lys)-OH)2 (SEQ ID NO: 5) and linker-DIG diglycolic acid] (I: [NMeR]SD[Thr(3ξ)]L[Pen][Phe(4-tBu)][β3hE][dK]-OH / II: [NMeR]SD[Thr(3ξ)]L[Pen][Phe(4-tBu)][β3hE][dK]-OH; linker I:9-II:9 via Diglycolyl; linker I:N-I:6, II:N-II:6 via X1), the “Tmax for RO” value ([1]; 900 mg QD, Day 5) is reported as 3.3 ± 6.2 h, the “Average RO (%)” value ([1]; 900 mg QD, Day 5, 24-hour AUEC) is reported as 79.2% and 79.2 ± 8.7% and the “Average RE (%)” value [1, 3] is reported as −33.9 ± 3.4%. The “Average RO (%)” value [1, 3] was 77.1 ± 3.7%, the “REmax (%)” value [1, 3] was −43.1 ± 4.0% and the “ROmax (%)” value [1, 3] was 91.3 ± 2.93%. For the same compound, the “Tmax for RE” value [1, 3] was 12.0 ± 0 h, the “Tmax for RO” value [1, 3] was 7.0 ± 4.1 h and the “ROmax (%)” value ([1]; 1000 mg Fasted once daily, Day 1, listed as COMPOUND A) was 91.3%. For the same compound, the “Average RE (%)” value [1, 4] was −51.3 ± 3.1%, the “Average RO (%)” value [1, 4] was 81.5 ± 15.5% and the “REmax (%)” value [1, 4] was −57.3 ± 2.9%. The “ROmax (%)” value [1, 4] was 95.6 ± 0.97%, the “Tmax for RE” value [1, 4] was 4.0 ± 0 h and the “Tmax for RO” value [1, 4] was 4.0 ± 0 h. The “ROmax (%)” value ([1]; 1000 mg Fasted once daily, Day 14, listed as COMPOUND A) was 95.6%, the “mean peak receptor occupancy” value ([1]; doses of 900 mg) was “greater than 90%” and the trough receptor occupancy ([1]; once-daily 100 mg) was “approximately 25.4%”. The trough receptor occupancy ([1]; once-daily 1000 mg) was about 78.6%, the “receptor occupancy at trough” value ([1]; once-daily or twice-daily dosing) was “greater than 80%” and the “Average RE (%)” value ([1]; single dose 100 mg) was −21.6 ± 7.1%. For the same compound, the “Average RO (%)” value ([1]; single dose 100 mg) was 38.9 ± 12.5%, the “ROmax (%)” value ([1]; single dose 100 mg) was 61.8 ± 10.8% and the “Tmax for RE” value ([1]; single dose 100 mg) was 11 ± 6.0 h. The “Tmax for RO” value ([1]; single dose 100 mg) was 3.8 ± 2.2 h, the “REmax (%)” value ([1]; single dose 100 mg, change from baseline) was −28.2 ± 7.97% and the “REmax (%)” value ([1]; single dose 100 mg, change from baseline, listed as COMPOUND A) was −28.2%. The “ROmax (%)” value ([1]; single dose 100 mg, listed as COMPOUND A) was 61.8%, the “Average RE (%)” value ([1]; single dose 300 mg) was −32.4 ± 3.0% and the “Average RO (%)” value ([1]; single dose 300 mg) was 64.3 ± 6.6%. The “REmax (%)” value ([1]; single dose 300 mg) was −43.6 ± 3.69%, the “ROmax (%)” value ([1]; single dose 300 mg) was 83.4 ± 7.92% and the “Tmax for RE” value ([1]; single dose 300 mg) was 12 ± 0 h. The “Tmax for RO” value ([1]; single dose 300 mg) was 4.6 ± 2.3 h, the “ROmax (%)” value ([1]; single dose 300 mg, listed as COMPOUND A) was 83.4% and the “Average RE (%)” value ([1]; single dose 1000 mg) was −36.3 ± 2.9%. For the same compound, the “Average RO (%)” value ([1]; single dose 1000 mg) was 81.0 ± 3.5%, the “REmax (%)” value ([1]; single dose 1000 mg) was −45.4 ± 3.70% and the “ROmax (%)” value ([1]; single dose 1000 mg) was 93.6 ± 2.04%. The “Tmax for RE” value ([1]; single dose 1000 mg) was 12 ± 0 h, the “Tmax for RO” value ([1]; single dose 1000 mg) was 4.1 ± 1.9 h and the “Average RE (%)” value ([1]; single dose 1400 mg) was −40.3 ± 6.9%. The “Average RO (%)” value ([1]; single dose 1400 mg) was 86.0 ± 6.8%, the “REmax (%)” value ([1]; single dose 1400 mg) was −49.0 ± 8.20% and the “ROmax (%)” value ([1]; single dose 1400 mg) was 94.8 ± 3.55%. The “Tmax for RE” value ([1]; single dose 1400 mg) was 12 ± 0 h, the “Tmax for RO” value ([1]; single dose 1400 mg) was 4.6 ± 3.2 h and the “REmax (%)” value [1, 5] was −49.0%. The “ROmax (%)” value [1, 5] was 94.8%, the “AUCt (ng · h/mL)” value ([2]; 100 mg) was 12.9 ± 7.27^ ng · h/mL and the “AUCinf” value ([2]; 300 mg) was 46.3 ± 19.2 ng·h/mL. The “AUCinf (ng · h/mL)” value ([2]; 300 mg) was 43.9 ± 13.0^d ng · h/mL, the “Cmax (ng/mL)” value ([2]; 300 mg) was 4.72 ± 1.85^ ng/mL and the “AUCt” value ([2]; 450 mg) was 132 ± 106 ng·h/mL. The “AUCtau” value ([2]; 450 mg) was 72.1 ± 54.7 ng·h/mL, the “Cmax” value ([2]; 450 mg) was 5.98 ± 1.61 ng/mL and the “AUCinf” value ([2]; 900 mg) was 160 ± 96.5 ng·h/mL. The “AUCt” value ([2]; 900 mg) was 140 ± 74.4 ng·h/mL, the “AUCtau” value ([2]; 900 mg) was 140 ± 74.4 ng·h/mL and the “Cmax” value ([2]; 900 mg) was 22.8 ± 16.9 ng/mL. The “Ctrough” value ([2]; 450 mg) was 3.25 ± 3.5 ng/mL and the “Ctrough” value ([2]; 900 mg) was 1.78 ± 2.3 ng/mL.

— patent US20230063321A1, “Methods for Treating Inflammatory Bowel Diseases with alpha4beta7 Integrin Antagonists” (Protagonist Therapeutics, Inc., priority 2020, published 2023)
